This note sets out measurements from ChEMBL document CHEMBL4043252, “Discovery and structure-based design of 4,6-diaminonicotinamides as potent and selective IRAK4 inhibitors” (Bioorg Med Chem Lett, 2017).

A short description of series [1]: in vitro. Particulars: mouse, liver microsomes. A general note: Microsomes from liver hold many membrane-bound enzymes, among them those of drug oxidation.
Series [2] has as its system Liver. Particulars: human, microsomes.
Series [3] can be described thus: physchem. Particulars: PAMPA, pH 7.4. For orientation: The PAMPA barrier holds no transporters, so it reflects passive diffusion.

For the compound `CNC(=O)c1cnc(Nc2ccc3ncsc3c2)cc1N[C@@H](c1ccccc1)[C@H](O)CO`, the amount remaining (commonly the share of the starting amount still present when the sample was taken) at 10 min in series [1] fell in the range of 21 to 31%. For the same compound, the Stability in series [2] is recorded as 90%. For the same compound, the Papp (commonly the rate of passage across a membrane or cell layer, normalised by area and donor concentration) in series [3] came to 1.9 ×10⁻⁶ cm/s.
The like results for `CNC(=O)c1cnc(Nc2ccc(OC)c(F)c2)cc1N[C@@H](c1ccccc1)[C@H](O)CO` were, in that order, 20%, 80% and 6.3 ×10⁻⁶ cm/s.
